The record followed here is US20240246908A1 (ORION CORPORATION, priority 2021, published 2024).

As usually defined, the IC50 is the concentration at which inhibition is half-maximal.

For this assay, the system named is YAP-TEAD. Nature of the assay: TEAD inhibition, Hippo Pathway TEAD Reporter MCF-7 luciferase assay. It counts as cell-based. Conditions: Homo sapiens, MCF7, 24 h, Hippo Pathway TEAD Reporter MCF-7 cells, luciferase activity after 24 h; read-out: IC50 of the test compounds on YAP-TEAD inhibition (Group). In a few lines:
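IC50 derived from ONE-Glo luciferase luminescence after 24 h compound exposure (11 concentrations in quadruplicate, 0.1% DMSO control). Reporter: MCF-7 line expressing firefly luciferase under TEAD elements, constitutively activated by nuclear YAP1.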

As for `COc1ccc(Oc2ccc(C(F)(F)F)cn2)cc1NC(=O)[C@@H]1COC(=O)N1C` [Compound 125, (S)—N-(2-Methoxy-5-((5-(trifluoromethyl)pyridin-2-yl)oxy)phenyl)-3-methyl-2-oxooxazolidine-4-carboxamide], the IC50 is 50 to 300 nM. Regarding `CN1C(=O)CCC1C(=O)Nc1cc(Oc2ccc(F)c(F)c2)cc2c1OCC2` (stereo not shown) [Compound 239, N-(5-(3,4-Difluorophenoxy)-2,3-dihydrobenzofuran-7-yl)-1-methyl-5-oxopyrro-lidine-2-carboxamide], the IC50 is < 50 nM. To `COc1ccc(Oc2ccc(C(F)(F)F)cn2)cc1NC(=O)[C@H]1CNC(=O)N1C` [Compound 124, (R)—N-(2-Methoxy-5-((5-(trifluoromethyl)pyridin-2-yl)oxy)phenyl)-3-methyl-2-oxoimidazolidine-4-carboxamide] belongs 301 to 2000 nM. On to `COc1ccc(Oc2ccc(C(F)(F)F)cc2)cc1NC(=O)[C@H]1CNC(=O)N1C` [Compound 140, (R)—N-(2-Methoxy-5-(4-(trifluoromethyl)phenoxy)phenyl)-3-methyl-2-oxo-imidazolidine-4-carboxamide], for which the IC50 fell in the range of 50 to 300 nM. Consider `COc1c(F)cc(COc2cccc(F)c2)cc1NC(=O)C1CCC(=O)N1C` (stereo not shown) [Compound 35, N-(3-Fluoro-5-((3-fluorophenoxy)methyl)-2-methoxyphenyl)-1-methyl-5-oxo-pyrrolidine-2-carboxamide], for which the IC50 lay within 301 to 2000 nM.

Regarding `O=C1CCC(C(=O)Nc2cc(Oc3ccc(C(F)(F)F)cc3)cc3c2OCCO3)N1` (stereo not shown) [Compound 66, 5-Oxo-N-(7-(4-(trifluoromethyl)phenoxy)-2,3-dihydrobenzo[b][1,4]dioxin-5-yl)pyrrolidine-2-carboxamide], the IC50 was < 50 nM.

On to `CN1C(=O)NCC1C(=O)Nc1cc(Oc2ccc(C(F)(F)F)cc2)cc2c1OCO2` (stereo not shown) [Compound 186, 3-Methyl-2-oxo-N-(6-(4-(trifluoromethyl)phenoxy)benzo[d][1,3]dioxol-4-yl)-imidazolidine-4-carboxamide], for which the concentration for half-maximal inhibition (IC50) is < 50 nM. On to `Cc1c(Oc2cccc(C(F)(F)F)c2)cc(NC(=O)C2CCC(=O)N2)c2c1OCCO2` (stereo not shown) [Compound 61, N-(8-Methyl-7-(3-(trifluoromethyl)phenoxy)-2,3-dihydrobenzo[b][1,4]dioxin-5-yl)-5-oxopyrrolidine-2-carboxamide], for which the IC50 was 301 to 2000 nM. `CN1C(=O)CC[C@@H]1C(=O)Nc1cc(O[C@H]2CC[C@@H](C(F)(F)F)CC2)cc2c1OCC2` [Compound 108, (R)-1-Methyl-5-oxo-N-(5-(((cis)-4-(trifluoromethyl)cyclohexyl)oxy)-2,3-dihydrobenzofuran-7-yl)pyrrolidine-2-carboxamide]: the half-maximal inhibitory concentration (IC50) is 50 to 300 nM. The value for `COc1ccc(/C=C/C2CCC(F)(F)CC2)cc1NC(=O)C1CNC(=O)N1` (stereo not shown) [Compound 404, (E)-N-(5-(2-(4,4-Difluorocyclohexyl)vinyl)-2-methoxyphenyl)-2-oxo-imidazolidine-4-carboxamide] was 50 to 300 nM; that for `COc1ccc(Oc2cccc(C(F)(F)F)c2)cc1NC(=O)C1CCC(=O)N1C(=O)C1CC1` (stereo not shown) [Compound 38, 1-(Cyclopropanecarbonyl)-N-(2-methoxy-5-(3-(trifluoromethyl)phenoxy)-phenyl)-5-oxopyrrolidine-2-carboxamide] was 301 to 2000 nM. As to `COc1ccc(OC2CCC(C(F)(F)F)CC2)cc1NC(=O)[C@H]1CCC(=O)N1C` (stereo partly drawn) [Compound 265, (R)—N-(2-Methoxy-5-((4-(trifluoromethyl)cyclohexyl)oxy)phenyl)-1-methyl-5-oxopyrrolidine-2-carboxamide], the IC50 was < 50 nM. For `O=C1CCC2(C(=O)Nc3cc(Oc4ccc(C(F)(F)F)cc4)cc4c3OCCO4)CCCN12` (stereo not shown) [Compound 80, 3-Oxo-N-(7-(4-(trifluoromethyl)phenoxy)-2,3-dihydrobenzo[b][1,4]dioxin-5-yl)tetrahydro-1H-pyrrolizine-7a(5H)-carboxamide], the IC50 lay in the range of 50 to 300 nM.

Consider `COc1ccc(Oc2ccc(C#N)c(C(F)(F)F)c2)cc1NC(=O)C1CCC(=O)N1C` (stereo not shown) [Compound 396, N-(5-(4-Cyano-3-(trifluoromethyl)phenoxy)-2-methoxyphenyl)-1-methyl-5-oxopyrrolidine-2-carboxamide], for which the IC50 lay within 50 to 300 nM. To `CCN1C(=O)NCC1C(=O)Nc1cc(Oc2ccc(C(F)(F)F)cn2)cc2c1OCC2` (stereo not shown) [Compound 167, 3-Ethyl-2-oxo-N-(5-((5-(trifluoromethyl)pyridin-2-yl)oxy)-2,3-dihydrobenzo-furan-7-yl)imidazolidine-4-carboxamide] belongs < 50 nM. The value for `CN1CC(=O)N(C)C(C(=O)Nc2cc(Oc3ccc(C(F)(F)F)cc3)cc3c2OCC3)C1` (stereo not shown) [Compound 383, 1,4-Dimethyl-6-oxo-N-(5-(4-(trifluoromethyl)phenoxy)-2,3-dihydrobenzofuran-7-yl)piperazine-2-carboxamide] was 50 to 300 nM; that for `CN1C(=O)CCC1C(=O)Nc1cc(Oc2ccc(C(F)(F)F)cc2)ccc1Cl` (stereo not shown) [Compound 258, N-(2-Chloro-5-(4-(trifluoromethyl)phenoxy)phenyl)-1-methyl-5-oxopyrrolidine-2-carboxamide] was 50 to 300 nM; that for `COc1ccc(Oc2ncc(C(F)(F)F)cc2Cl)cc1NC(=O)[C@@H]1CNC(=O)N1C` [Compound 345, (S)—N-(5-((3-Chloro-5-(trifluoromethyl)pyridin-2-yl)oxy)-2-methoxyphenyl)-3-methyl-2-oxoimidazolidine-4-carboxamide] was < 50 nM. To `COc1ccc(Oc2ccc(C(F)(F)F)cc2)cc1NC(=O)c1ccc(=O)[nH]c1` [Compound 122, N-(2-Methoxy-5-(4-(trifluoromethyl)phenoxy)phenyl)-6-oxo-1,6-dihydro-pyridine-3-carboxamide] belongs 301 to 2000 nM. Turning to `O=C(Nc1cc(Oc2ccc(C(F)(F)F)cn2)cc2c1OCC2)C1CNC(=O)N1C1CC1` (stereo not shown) [Compound 164, 3-Cyclopropyl-2-oxo-N-(5-((5-(trifluoromethyl)pyridin-2-yl)oxy)-2,3-dihydro-benzofuran-7-yl)imidazolidine-4-carboxamide], the IC50 is < 50 nM. Turning to `COc1ccc(Cc2cccc(C(F)(F)F)c2)cc1NC(=O)C1CCC(=O)N1C` (stereo not shown) [Compound 256, N-(2-Methoxy-5-(3-(trifluoromethyl)benzyl)phenyl)-1-methyl-5-oxopyrrolidine-2-carboxamide], the IC50 fell in the range of 50 to 300 nM. Regarding `COc1ccc(Oc2ccc(C(F)(F)F)cc2)cc1NC(=O)C1CCC(=O)N1C(=O)C1CC(=O)N1` (stereo not shown) [Compound 231, N-(2-Methoxy-5-(4-(trifluoromethyl)phenoxy)phenyl)-5-oxo-1-(4-oxoazetidine-2-carbonyl)pyrrolidine-2-carboxamide], the concentration for half-maximal inhibition (IC50) is < 50 nM.

Turning to `COc1ccc(Oc2cccc(F)c2)cc1NC(=O)[C@H]1CCC(=O)N1` [Compound 25, (R)—N-(5-(3-Fluorophenoxy)-2-methoxyphenyl)-5-oxopyrrolidine-2-carboxamide], the IC50 lay in the range of 50 to 300 nM. With `COc1ccc(Oc2ncc(C(F)(F)F)cc2F)cc1NC(=O)[C@@H]1CCCN1C(C)=O` [Compound 358, (S)-1-Acetyl-N-(5-((3-fluoro-5-(trifluoromethyl)pyridin-2-yl)oxy)-2-methoxyphenyl)pyrrolidine-2-carboxamide], the IC50 lay within 301 to 2000 nM. Turning to `COc1ccc(Oc2ccc3c(c2)CCO3)cc1NC(=O)C1CCC(=O)N1C` (stereo not shown) [Compound 315, N-(5-((2,3-Dihydrobenzofuran-5-yl)oxy)-2-methoxyphenyl)-1-methyl-5-oxopyrrolidine-2-carboxamide], the IC50 lay in the range of 50 to 300 nM.
